Data reported in ChEMBL document CHEMBL3286223, “Anticancer phytochemical analogs 37: synthesis, characterization, molecular docking and cytotoxicity of novel plumbagin hydrazones against breast cancer cells” (Bioorg Med Chem Lett, 2014).
The source made the active and inactive calls. The calls are words filed in the database; no cut-off is given here.

Assays:
[1] = Cytotoxicity against human MCF10A cells after 72 hrs by MTT assay; assay type: cell-based; conditions: mcf-10a
[2] = tested on: MCF7; experiment: Cytotoxicity against human MCF7 cells expressing estrogen and progesterone receptor after 72 hrs by MTT assay; assay type: functional, cell-based
[3] = target: Transcription factor p65 (Homo sapiens) (UniProt Q04206); experiment: Reduction of NFkappaB p65 expression in estrogen receptor-deficient human MDA-MB-231 cells at 5 uM after 72 hrs by Western blot analysis; assay type: cell-based
[4] = tested on: MDA-MB-231; experiment: Cytotoxicity against estrogen receptor-deficient human MDA-MB-231 cells after 72 hrs by MTT assay; assay type: functional, cell-based; conditions: MDA-MB-231, 72 h

Transcription factor p65 (Homo sapiens), sequence (Q04206 whole entry): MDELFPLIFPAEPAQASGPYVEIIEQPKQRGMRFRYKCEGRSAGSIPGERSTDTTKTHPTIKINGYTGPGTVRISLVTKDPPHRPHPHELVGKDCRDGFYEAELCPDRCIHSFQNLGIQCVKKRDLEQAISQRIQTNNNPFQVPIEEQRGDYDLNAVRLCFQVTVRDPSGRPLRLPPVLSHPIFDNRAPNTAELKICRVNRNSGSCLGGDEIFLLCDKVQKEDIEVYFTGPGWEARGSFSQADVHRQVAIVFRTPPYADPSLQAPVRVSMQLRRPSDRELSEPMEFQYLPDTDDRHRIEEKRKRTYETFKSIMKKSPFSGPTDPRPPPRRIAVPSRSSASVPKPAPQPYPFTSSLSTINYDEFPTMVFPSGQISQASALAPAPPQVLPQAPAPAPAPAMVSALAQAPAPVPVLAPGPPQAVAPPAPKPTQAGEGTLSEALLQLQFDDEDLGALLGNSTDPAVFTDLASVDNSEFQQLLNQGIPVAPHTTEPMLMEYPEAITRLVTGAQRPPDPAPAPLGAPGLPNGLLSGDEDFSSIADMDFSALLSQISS

Row | Activity [3] | SMILES | Activity [1] | Activity [2] | IC50 [4] [nM]
1 |  | CC1=C/C(=N\NC(N)=S)c2c(O)cccc2C1=O | Non-toxic | Active | 
2 | Active | CC1=C/C(=N\NC(=O)Cc2c[nH]c3ccccc23)c2c(O)cccc2C1=O | Non-toxic | Active | 1500
3 |  | CC(=O)N/N=C1\C=C(C)C(=O)c2cccc(O)c21 | Non-toxic | Active | 
4 |  | CC1=CC(=O)c2c(O)cccc2C1=O |  | Active | 
5 | Active | CC1=C/C(=N\NC(=O)c2cc3ccccc3cc2O)c2c(O)cccc2C1=O | Non-toxic | Active | 3200
